One block for each compound: values may come before it.
Tested on: 422866-222-R5-J1-PDC complex spheroids viability
Experiment: Anticancer human tumor 422866-222-R5-J1-PDC patient-derived pancreatic adenocarcinoma cell line growth inhibition [RAS]
Conditions: for IC50: curve of first compound; for viability, T/C: stronger effect = lower value
Procedure, shortened: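 Tumour cells grown as complex spheroids with HUVEC endothelial cells and mesenchymal stem cells, treated with RAS pathway inhibitor combinations. Each agent spans half-log steps from near clinical Cmax, or 10 microM where Cmax is unknown.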
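Note: spheroids exposed to compounds for 7 days.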
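Throughout, for viability, T/C: 100% = DMSO vehicle control viability.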

IC50 (second compound 0.000949 µM): < 31.6 nM | IC50 (second compound 0.003 µM): < 31.6 nM | IC50 (second compound 0.00949 µM): < 31.6 nM | IC50 (second compound 0.03 µM): < 31.6 nM | IC50 (second compound 0.0949 µM): < 31.6 nM | IC50 (second compound 0.3 µM): < 31.6 nM
SMILES: NC1c2ccccc2OC12CCN(c1cnc3c(N4CCCc5ncccc54)n[nH]c3n1)CC2 (centres undefined) + CCn1c(-c2cc(N3CCN(C)CC3)cnc2C(C)OC)c2c3cc(ccc31)-c1csc(n1)CC(NC(=O)C1CC1C)C(=O)N1CCCC(N1)C(=O)OCC(C)(C)C2
viability, T/C (second compound 0.000949 µM, first compound 0.0316 µM): 20.1% | viability, T/C (second compound 0.000949 µM, first compound 0.1 µM): 18.4% | viability, T/C (second compound 0.000949 µM, first compound 0.316 µM): 14.1% | viability, T/C (second compound 0.000949 µM, first compound 1 µM): 16.4% | viability, T/C (second compound 0.000949 µM, first compound 3.16 µM): 18.4% | viability, T/C (second compound 0.000949 µM, first compound 10 µM): 18.5% | viability, T/C (second compound 0.003 µM, first compound 0.0316 µM): 19.2% | viability, T/C (second compound 0.003 µM, first compound 0.1 µM): 15.6% | viability, T/C (second compound 0.003 µM, first compound 0.316 µM): 14.8% | viability, T/C (second compound 0.003 µM, first compound 1 µM): 16.3% | viability, T/C (second compound 0.003 µM, first compound 3.16 µM): 17.4% | viability, T/C (second compound 0.003 µM, first compound 10 µM): 19.8% | viability, T/C (second compound 0.00949 µM, first compound 0.0316 µM): 16.1% | viability, T/C (second compound 0.00949 µM, first compound 0.1 µM): 15.2% | viability, T/C (second compound 0.00949 µM, first compound 0.316 µM): 14.6% | viability, T/C (second compound 0.00949 µM, first compound 1 µM): 14.7% | viability, T/C (second compound 0.00949 µM, first compound 3.16 µM): 18.5% | viability, T/C (second compound 0.00949 µM, first compound 10 µM): 16.5% | viability, T/C (second compound 0.03 µM, first compound 0.0316 µM): 17.2% | viability, T/C (second compound 0.03 µM, first compound 0.1 µM): 16.4% | viability, T/C (second compound 0.03 µM, first compound 0.316 µM): 16.7% | viability, T/C (second compound 0.03 µM, first compound 1 µM): 16.8% | viability, T/C (second compound 0.03 µM, first compound 3.16 µM): 18.2% | viability, T/C (second compound 0.03 µM, first compound 10 µM): 17.9% | viability, T/C (second compound 0.0949 µM, first compound 0.0316 µM): 17.5% | viability, T/C (second compound 0.0949 µM, first compound 0.1 µM): 18.4% | viability, T/C (second compound 0.0949 µM, first compound 0.316 µM): 16.9% | viability, T/C (second compound 0.0949 µM, first compound 1 µM): 19.2% | viability, T/C (second compound 0.0949 µM, first compound 3.16 µM): 18.5% | viability, T/C (second compound 0.0949 µM, first compound 10 µM): 18.9% | viability, T/C (second compound 0.3 µM, first compound 0.0316 µM): 18.6% | viability, T/C (second compound 0.3 µM, first compound 0.1 µM): 19% | viability, T/C (second compound 0.3 µM, first compound 0.316 µM): 20.5% | viability, T/C (second compound 0.3 µM, first compound 1 µM): 19.2% | viability, T/C (second compound 0.3 µM, first compound 3.16 µM): 19.8% | viability, T/C (second compound 0.3 µM, first compound 10 µM): 22.7%

IC50 (second compound 0.0316 µM): 1860 nM | IC50 (second compound 0.1 µM): 1690 nM | IC50 (second compound 0.316 µM): 1340 nM | IC50 (second compound 1 µM): 466 nM | IC50 (second compound 3.16 µM): < 31.6 nM | IC50 (second compound 10 µM): < 31.6 nM
SMILES: CCC(CC)c1cc(NC2CCC(N)C2)n2nccc2n1 (centres undefined) + C#Cc1c(F)ccc2cc(O)cc(-c3ncc4c(N5CC6CCC(C5)N6)nc(OCC56CCCN5CC(F)C6)nc4c3F)c12
viability, T/C (second compound 0.0316 µM, first compound 0.0316 µM): 97.8% | viability, T/C (second compound 0.0316 µM, first compound 0.1 µM): 104% | viability, T/C (second compound 0.0316 µM, first compound 0.316 µM): 118% | viability, T/C (second compound 0.0316 µM, first compound 1 µM): 75.7% | viability, T/C (second compound 0.0316 µM, first compound 3.16 µM): 19.7% | viability, T/C (second compound 0.0316 µM, first compound 10 µM): 36.2% | viability, T/C (second compound 0.1 µM, first compound 0.0316 µM): 99% | viability, T/C (second compound 0.1 µM, first compound 0.1 µM): 125% | viability, T/C (second compound 0.1 µM, first compound 0.316 µM): 98.2% | viability, T/C (second compound 0.1 µM, first compound 1 µM): 71.9% | viability, T/C (second compound 0.1 µM, first compound 3.16 µM): 12.5% | viability, T/C (second compound 0.1 µM, first compound 10 µM): 35.3% | viability, T/C (second compound 0.316 µM, first compound 0.0316 µM): 75% | viability, T/C (second compound 0.316 µM, first compound 0.1 µM): 85.1% | viability, T/C (second compound 0.316 µM, first compound 0.316 µM): 83.4% | viability, T/C (second compound 0.316 µM, first compound 1 µM): 58.5% | viability, T/C (second compound 0.316 µM, first compound 3.16 µM): 12.3% | viability, T/C (second compound 0.316 µM, first compound 10 µM): 38.6% | viability, T/C (second compound 1 µM, first compound 0.0316 µM): 50.2% | viability, T/C (second compound 1 µM, first compound 0.1 µM): 57.9% | viability, T/C (second compound 1 µM, first compound 0.316 µM): 47.8% | viability, T/C (second compound 1 µM, first compound 1 µM): 46.1% | viability, T/C (second compound 1 µM, first compound 3.16 µM): 12.7% | viability, T/C (second compound 1 µM, first compound 10 µM): 35.3% | viability, T/C (second compound 3.16 µM, first compound 0.0316 µM): 35.6% | viability, T/C (second compound 3.16 µM, first compound 0.1 µM): 28.6% | viability, T/C (second compound 3.16 µM, first compound 0.316 µM): 33.3% | viability, T/C (second compound 3.16 µM, first compound 1 µM): 33.9% | viability, T/C (second compound 3.16 µM, first compound 3.16 µM): 10.5% | viability, T/C (second compound 3.16 µM, first compound 10 µM): 39.9% | viability, T/C (second compound 10 µM, first compound 0.0316 µM): 21.7% | viability, T/C (second compound 10 µM, first compound 0.1 µM): 24.9% | viability, T/C (second compound 10 µM, first compound 0.316 µM): 30.2% | viability, T/C (second compound 10 µM, first compound 1 µM): 27.6% | viability, T/C (second compound 10 µM, first compound 3.16 µM): 9.17% | viability, T/C (second compound 10 µM, first compound 10 µM): 35%
